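Where inhibition never reached the appropriate level, the endpoint shown equals the highest concentration tested. Otherwise, values were interpolated linearly from a five-concentration, 48-hour dose response in 96-well plates. TGI is the concentration that stops growth completely.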
Legend:
Assay in all cases: NCI tumour cell line growth inhibition, 48 h
786-0 renal = system: 786-0 renal
A549 NSCLC = system: A549 NSCLC
ACHN renal = system: ACHN renal
BT-549 breast = system: BT-549 breast
CAKI-1 renal = system: CAKI-1 renal
CCRF-CEM leukemia = system: CCRF-CEM leukemia
COLO 205 colon = system: COLO 205 colon
DU-145 prostate = system: DU-145 prostate
EKVX NSCLC = system: EKVX NSCLC
HCC-2998 colon = system: HCC-2998 colon
HCT-116 colon = system: HCT-116 colon
HCT-15 colon = system: HCT-15 colon
HL-60(TB) leukemia = system: HL-60(TB) leukemia
HOP-62 NSCLC = system: HOP-62 NSCLC
HOP-92 NSCLC = system: HOP-92 NSCLC
HS 578T breast = system: HS 578T breast
HT29 colon = system: HT29 colon
IGROV1 ovarian = system: IGROV1 ovarian
KM12 colon = system: KM12 colon
LOX IMVI melanoma = system: LOX IMVI melanoma
M14 melanoma = system: M14 melanoma
MCF7 breast = system: MCF7 breast
MDA-MB-231 breast = system: MDA-MB-231 breast
MDA-MB-435 = system: MDA-MB-435
MDA-N = system: MDA-N
MOLT-4 leukemia = system: MOLT-4 leukemia
NCI-H23 lung = system: NCI-H23 lung
NCI-H460 lung = system: NCI-H460 lung
NCI-H522 lung = system: NCI-H522 lung
NCI/ADR-RES ovarian = system: NCI/ADR-RES ovarian
OVCAR-3 ovarian = system: OVCAR-3 ovarian
OVCAR-4 ovarian = system: OVCAR-4 ovarian
OVCAR-5 ovarian = system: OVCAR-5 ovarian
OVCAR-8 ovarian = system: OVCAR-8 ovarian
PC-3 prostate = system: PC-3 prostate
RPMI-8226 leukemia = system: RPMI-8226 leukemia
SF-268 CNS = system: SF-268 CNS
SF-295 CNS = system: SF-295 CNS
SF-539 CNS = system: SF-539 CNS
SK-MEL-2 melanoma = system: SK-MEL-2 melanoma
SK-MEL-28 melanoma = system: SK-MEL-28 melanoma
SK-MEL-5 melanoma = system: SK-MEL-5 melanoma
SN12C renal = system: SN12C renal
SNB-19 CNS = system: SNB-19 CNS
SNB-75 CNS = system: SNB-75 CNS
SR leukemia = system: SR leukemia
SW-620 colon = system: SW-620 colon
T-47D breast = system: T-47D breast
TK-10 renal = system: TK-10 renal
U251 CNS = system: U251 CNS
UACC-257 melanoma = system: UACC-257 melanoma
UACC-62 melanoma = system: UACC-62 melanoma
UO-31 renal = system: UO-31 renal
A498 renal = system: A498 renal
K-562 leukemia = system: K-562 leukemia
RXF 393 renal = system: RXF 393 renal
SK-OV-3 ovarian = system: SK-OV-3 ovarian
NCI-H226 lung = system: NCI-H226 lung

## c1ccc(CSP234N5CCN2CCN3CCN4CC5)c(CSP234N5CCN2CCN3CCN4CC5)c1
786-0 renal
  TGI: > 100 µM
A549 NSCLC
  TGI: > 100 µM
ACHN renal
  TGI: > 100 µM
BT-549 breast
  TGI: > 100 µM
CAKI-1 renal
  TGI: > 100 µM
CCRF-CEM leukemia
  TGI: > 100 µM
COLO 205 colon
  TGI: 47.3 µM
DU-145 prostate
  TGI: > 100 µM
EKVX NSCLC
  TGI: > 100 µM
HCC-2998 colon
  TGI: > 100 µM
HCT-116 colon
  TGI: > 100 µM
HCT-15 colon
  TGI: > 100 µM
HL-60(TB) leukemia
  TGI: 77 µM
HOP-62 NSCLC
  TGI: > 100 µM
HOP-92 NSCLC
  TGI: > 100 µM
HS 578T breast
  TGI: > 100 µM
HT29 colon
  TGI: > 100 µM
IGROV1 ovarian
  TGI: > 100 µM
KM12 colon
  TGI: > 100 µM
LOX IMVI melanoma
  TGI: > 100 µM
M14 melanoma
  TGI: > 100 µM
MCF7 breast
  TGI: > 100 µM
MDA-MB-231 breast
  TGI: > 100 µM
MDA-MB-435
  TGI: > 100 µM
MDA-N
  TGI: 82.8 µM
MOLT-4 leukemia
  TGI: > 100 µM
NCI-H23 lung
  TGI: > 100 µM
NCI-H460 lung
  TGI: > 100 µM
NCI-H522 lung
  TGI: > 100 µM
NCI/ADR-RES ovarian
  TGI: > 100 µM
OVCAR-3 ovarian
  TGI: > 100 µM
OVCAR-4 ovarian
  TGI: > 100 µM
OVCAR-5 ovarian
  TGI: > 100 µM
OVCAR-8 ovarian
  TGI: > 100 µM
PC-3 prostate
  TGI: > 100 µM
RPMI-8226 leukemia
  TGI: > 100 µM
SF-268 CNS
  TGI: > 100 µM
SF-295 CNS
  TGI: > 100 µM
SF-539 CNS
  TGI: > 100 µM
SK-MEL-2 melanoma
  TGI: > 100 µM
SK-MEL-28 melanoma
  TGI: > 100 µM
SK-MEL-5 melanoma
  TGI: > 100 µM
SN12C renal
  TGI: > 100 µM
SNB-19 CNS
  TGI: > 100 µM
SNB-75 CNS
  TGI: > 100 µM
SR leukemia
  TGI: > 100 µM
SW-620 colon
  TGI: > 100 µM
T-47D breast
  TGI: > 100 µM
TK-10 renal
  TGI: > 100 µM
U251 CNS
  TGI: > 100 µM
UACC-257 melanoma
  TGI: > 100 µM
UACC-62 melanoma
  TGI: > 100 µM
UO-31 renal
  TGI: > 100 µM

## COc1ccc(C2C3=C(Nc4ncnn42)c2ccccc2OC3c2ccccc2)cc1 (stereo not given)
786-0 renal
  TGI: > 100 µM
A498 renal
  TGI: 6.36 µM
A549 NSCLC
  TGI: > 100 µM
ACHN renal
  TGI: > 100 µM
BT-549 breast
  TGI: 41.5 µM
CAKI-1 renal
  TGI: > 100 µM
COLO 205 colon
  TGI: > 100 µM
DU-145 prostate
  TGI: > 100 µM
HCT-116 colon
  TGI: > 100 µM
HCT-15 colon
  TGI: > 100 µM
HL-60(TB) leukemia
  TGI: 8.92 µM
HOP-62 NSCLC
  TGI: > 100 µM
HS 578T breast
  TGI: > 100 µM
IGROV1 ovarian
  TGI: > 100 µM
K-562 leukemia
  TGI: > 100 µM
KM12 colon
  TGI: 76.5 µM
LOX IMVI melanoma
  TGI: > 100 µM
M14 melanoma
  TGI: > 100 µM
MCF7 breast
  TGI: > 100 µM
MDA-MB-231 breast
  TGI: > 100 µM
MDA-MB-435
  TGI: 23.7 µM
MDA-N
  TGI: 44.1 µM
MOLT-4 leukemia
  TGI: 51 µM
NCI-H23 lung
  TGI: > 100 µM
NCI-H460 lung
  TGI: > 100 µM
NCI/ADR-RES ovarian
  TGI: > 100 µM
OVCAR-3 ovarian
  TGI: > 100 µM
OVCAR-5 ovarian
  TGI: > 100 µM
OVCAR-8 ovarian
  TGI: > 100 µM
PC-3 prostate
  TGI: > 100 µM
RXF 393 renal
  TGI: 48.1 µM
SF-268 CNS
  TGI: > 100 µM
SF-295 CNS
  TGI: > 100 µM
SF-539 CNS
  TGI: > 100 µM
SK-MEL-2 melanoma
  TGI: 53.9 µM
SK-MEL-5 melanoma
  TGI: 62.7 µM
SK-OV-3 ovarian
  TGI: > 100 µM
SN12C renal
  TGI: > 100 µM
SNB-19 CNS
  TGI: > 100 µM
SR leukemia
  TGI: > 100 µM
SW-620 colon
  TGI: > 100 µM
T-47D breast
  TGI: 59.4 µM
U251 CNS
  TGI: > 100 µM
UACC-257 melanoma
  TGI: > 100 µM
UACC-62 melanoma
  TGI: > 100 µM
UO-31 renal
  TGI: > 100 µM

## NNc1nncc2n[nH]nc12
786-0 renal
  TGI: > 100 µM
A498 renal
  TGI: > 100 µM
A549 NSCLC
  TGI: > 100 µM
ACHN renal
  TGI: > 100 µM
BT-549 breast
  TGI: > 100 µM
CAKI-1 renal
  TGI: > 100 µM
CCRF-CEM leukemia
  TGI: > 100 µM
COLO 205 colon
  TGI: > 100 µM
DU-145 prostate
  TGI: > 100 µM
EKVX NSCLC
  TGI: > 100 µM
HCT-116 colon
  TGI: > 100 µM
HCT-15 colon
  TGI: > 100 µM
HL-60(TB) leukemia
  TGI: > 100 µM
HOP-62 NSCLC
  TGI: > 100 µM
HS 578T breast
  TGI: > 100 µM
HT29 colon
  TGI: > 100 µM
IGROV1 ovarian
  TGI: > 100 µM
K-562 leukemia
  TGI: > 100 µM
KM12 colon
  TGI: > 100 µM
M14 melanoma
  TGI: > 100 µM
MCF7 breast
  TGI: > 100 µM
MDA-MB-231 breast
  TGI: > 100 µM
MDA-MB-435
  TGI: > 100 µM
MDA-N
  TGI: > 100 µM
MOLT-4 leukemia
  TGI: > 100 µM
NCI-H226 lung
  TGI: > 100 µM
NCI-H23 lung
  TGI: > 100 µM
NCI-H460 lung
  TGI: > 100 µM
NCI/ADR-RES ovarian
  TGI: > 100 µM
OVCAR-3 ovarian
  TGI: > 100 µM
OVCAR-5 ovarian
  TGI: > 100 µM
OVCAR-8 ovarian
  TGI: > 100 µM
PC-3 prostate
  TGI: > 100 µM
RPMI-8226 leukemia
  TGI: > 100 µM
RXF 393 renal
  TGI: > 100 µM
SF-268 CNS
  TGI: > 100 µM
SF-295 CNS
  TGI: > 100 µM
SF-539 CNS
  TGI: > 100 µM
SK-MEL-2 melanoma
  TGI: > 100 µM
SK-MEL-28 melanoma
  TGI: > 100 µM
SN12C renal
  TGI: > 100 µM
SNB-19 CNS
  TGI: > 100 µM
SNB-75 CNS
  TGI: 85.5 µM
SR leukemia
  TGI: > 100 µM
SW-620 colon
  TGI: > 100 µM
T-47D breast
  TGI: > 100 µM
TK-10 renal
  TGI: > 100 µM
U251 CNS
  TGI: > 100 µM
UACC-257 melanoma
  TGI: > 100 µM
UACC-62 melanoma
  TGI: > 100 µM
UO-31 renal
  TGI: > 100 µM

## CCOP(=O)(CN1CCNCCNCC1)OCC
786-0 renal
  TGI: > 100 µM
A498 renal
  TGI: > 100 µM
A549 NSCLC
  TGI: > 100 µM
ACHN renal
  TGI: > 100 µM
BT-549 breast
  TGI: > 100 µM
CAKI-1 renal
  TGI: > 100 µM
CCRF-CEM leukemia
  TGI: > 100 µM
COLO 205 colon
  TGI: > 100 µM
DU-145 prostate
  TGI: > 100 µM
EKVX NSCLC
  TGI: > 100 µM
HCC-2998 colon
  TGI: > 100 µM
HCT-116 colon
  TGI: > 100 µM
HCT-15 colon
  TGI: > 100 µM
HL-60(TB) leukemia
  TGI: > 100 µM
HOP-62 NSCLC
  TGI: > 100 µM
HOP-92 NSCLC
  TGI: > 100 µM
HS 578T breast
  TGI: > 100 µM
HT29 colon
  TGI: > 100 µM
IGROV1 ovarian
  TGI: > 100 µM
K-562 leukemia
  TGI: > 100 µM
KM12 colon
  TGI: > 100 µM
LOX IMVI melanoma
  TGI: > 100 µM
M14 melanoma
  TGI: > 100 µM
MCF7 breast
  TGI: > 100 µM
MDA-MB-231 breast
  TGI: > 100 µM
MDA-MB-435
  TGI: > 100 µM
MDA-N
  TGI: > 100 µM
MOLT-4 leukemia
  TGI: > 100 µM
NCI-H226 lung
  TGI: > 100 µM
NCI-H460 lung
  TGI: > 100 µM
NCI-H522 lung
  TGI: > 100 µM
NCI/ADR-RES ovarian
  TGI: > 100 µM
OVCAR-3 ovarian
  TGI: > 100 µM
OVCAR-4 ovarian
  TGI: > 100 µM
OVCAR-5 ovarian
  TGI: > 100 µM
OVCAR-8 ovarian
  TGI: > 100 µM
PC-3 prostate
  TGI: > 100 µM
RPMI-8226 leukemia
  TGI: > 100 µM
SF-295 CNS
  TGI: > 100 µM
SF-539 CNS
  TGI: > 100 µM
SK-MEL-2 melanoma
  TGI: > 100 µM
SK-MEL-28 melanoma
  TGI: > 100 µM
SK-MEL-5 melanoma
  TGI: > 100 µM
SK-OV-3 ovarian
  TGI: > 100 µM
SN12C renal
  TGI: > 100 µM
SNB-19 CNS
  TGI: > 100 µM
SNB-75 CNS
  TGI: > 100 µM
SR leukemia
  TGI: > 100 µM
SW-620 colon
  TGI: > 100 µM
T-47D breast
  TGI: > 100 µM
TK-10 renal
  TGI: > 100 µM
U251 CNS
  TGI: > 100 µM
UACC-257 melanoma
  TGI: > 100 µM
UACC-62 melanoma
  TGI: > 100 µM
UO-31 renal
  TGI: > 100 µM

Source: PubChem BioAssay (NCI)
